# Assay results: PubChem BioAssay (NCI)
#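 How tested: cells in 96-well plates exposed to compound for 48 hours at five concentrations. TGI: total growth inhibition.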
# Key:
# Assay in all cases: inhibition of tumour cell growth, NCI panel, 48 h
# HOP-92 NSCLC = system: HOP-92 NSCLC
# KM12 colon = system: KM12 colon
# EKVX NSCLC = system: EKVX NSCLC
# SN12C renal = system: SN12C renal
# OVCAR-4 ovarian = system: OVCAR-4 ovarian
# SK-MEL-2 melanoma = system: SK-MEL-2 melanoma
# HS 578T breast = system: HS 578T breast
# SF-539 CNS = system: SF-539 CNS
# SR leukemia = system: SR leukemia
# 786-0 renal = system: 786-0 renal
# NCI-H522 lung = system: NCI-H522 lung
# CCRF-CEM leukemia = system: CCRF-CEM leukemia
# OVCAR-3 ovarian = system: OVCAR-3 ovarian
# RXF 393 renal = system: RXF 393 renal
# HOP-62 NSCLC = system: HOP-62 NSCLC
# MDA-N = system: MDA-N
# SF-295 CNS = system: SF-295 CNS
# DLD-1 colon = system: DLD-1 colon
# BT-549 breast = system: BT-549 breast
# HCT-15 colon = system: HCT-15 colon
compound,measurement,setting,value
O=C1CCCC2=C(N1)C(=O)C=CC2=O,TGI,HOP-92 NSCLC,38.8 µM
same,TGI,KM12 colon,36.7 µM
same,TGI,EKVX NSCLC,53 µM
same,TGI,SN12C renal,> 69.2 µM
same,TGI,OVCAR-4 ovarian,67.6 µM
same,TGI,SK-MEL-2 melanoma,60.4 µM
same,TGI,HS 578T breast,79.4 µM
same,TGI,SF-539 CNS,59.1 µM
same,TGI,SR leukemia,57.8 µM
same,TGI,786-0 renal,57.5 µM
same,TGI,NCI-H522 lung,34.8 µM
same,TGI,CCRF-CEM leukemia,28.5 µM
same,TGI,OVCAR-3 ovarian,64.4 µM
same,TGI,RXF 393 renal,62.9 µM
same,TGI,HOP-62 NSCLC,61.9 µM
same,TGI,MDA-N,30.9 µM
same,TGI,SF-295 CNS,56.4 µM
same,TGI,DLD-1 colon,> 100 µM
same,TGI,BT-549 breast,31.1 µM
same,TGI,HCT-15 colon,62.6 µM
